# Test results taken from a melting point compilation (Tetko et al.; mined from patent text by program, amines drawn as free bases though some values may be those of a salt).
row,SMILES,melting point [°C]
1,CC(C)(CF)C(O)(COc1ccc(F)cc1)Cn1cncn1 (centres undefined),97 to 99
2,O=C(Nc1nc(C(F)(F)C(F)(F)F)c(CF)s1)c1cc(C(F)(F)F)cc(C(F)(F)F)c1,133 to 134
3,Cc1ccccc1-n1c(C=Cc2ccccc2F)nc2ccsc2c1=O,220 to 221
4,CC(=O)N1CCc2ccc(C(=O)CCCC3CCN(Cc4ccccc4Cl)CC3)cc2CC1,99 to 100
5,COc1cccc2c1CC(C(=O)NCCOc1ccc(C(=O)O)cc1)N2S(=O)(=O)c1ccc(-c2ccc(F)cc2)cc1 (centres undefined),113
6,CCCCCCCCCCCCCCc1ccc(N(CC(=O)O)CC(=O)O)cc1,160 to 165
7,CN1CC=C(c2c[nH]c3ccc(NC(=O)c4ccc(F)cc4Cl)cc23)CC1,212 to 222
8,O=C(O)CCC(=O)N(CCCOc1ccc(C(=O)O)cc1)c1ccc(Cl)cc1,155 to 158
9,COc1cccc(-c2ccc3[nH]c4c(ccc5cc[nH]c54)c3c2)c1,202 to 205
10,CC1CCN(Cc2ccc(C=CC(=O)Nc3ccc(-c4ccc(Cl)cc4)cc3)cc2)CC1,207 to 208
11,CCOC(=O)COc1ccc(SCCc2cccc3sc(-c4ccc(C(F)(F)F)cc4)nc23)cc1C,97 to 100
12,COC(=O)CCCCNC(=NC(=O)OCc1ccccc1)NC(=O)OCc1ccccc1,36 to 39
13,COCCOc1ccc(/C=C(\C)C(=O)NS(=O)(=O)c2ccc(Cl)cc2)c(Oc2ncc(C(F)(F)F)cc2Cl)c1,146
14,COC(=O)C(CNC(=O)c1ccccc1)NC(=O)C(C)(C)NC(=O)C(SC(C)=O)C(C)C (centres undefined),48 to 54
15,COc1ccc(S(=O)(=O)Nc2cccc(F)c2/C=C/c2ccncc2)cc1,177 to 178
16,CCOC(=O)N1CCN(C(=O)Cn2c(-c3ccc(Cl)cc3)nc3cccnc32)CC1,184 to 186
17,COc1ccc2c(c1)C(c1ccc([N+](=O)[O-])cc1)=NNC(=O)C2,282
18,CC1(C)OCC(CO)(CO)CO1,124 to 126
19,CC1(S(=O)(=O)N2C[C@@H](Cl)C[C@@H]2CCl)C=CC=CC1 (some centres undefined),103 to 105
20,CC1(C)C(=O)N(c2ccc(C#N)c(C(F)(F)F)c2)C(=S)N1CCF,135
21,CC1CCC(C(C)C)C(OC(=O)C(=O)Nc2nc(-c3ccccc3)cs2)C1 (centres undefined),98 to 100
22,Cc1cccc(NC(=O)NC2N=C(c3ccccc3F)c3ccccc3N(CC(=O)O)C2=O)c1 (racemic),167 to 169

row,SMILES,melting point [°C]
1,Cc1cc(C)cc(COC(=O)C(Cc2c[nH]c3ccccc23)NC(=O)c2ccccc2)c1 (centres undefined),133 to 134
2,Fc1ccc(N2CCN(CCCOc3cccc(-c4nnco4)c3)CC2)cc1,105 to 106
3,O[C@@H](CNCCOc1ccc2oc(-c3ccon3)cc2c1)COc1ccccc1,107 to 110
4,CN1C(=O)C(C(=O)Nc2cccc(F)c2)S(=O)(=O)c2ccccc21 (centres undefined),206 to 208
5,CC(=NOCCOc1ccc(CC2SC(=O)NC2=O)cc1)c1ccc(NS(=O)(=O)c2ccccc2)cc1 (centres undefined),213 to 215
6,CC(=O)NC(=O)Nc1ccc(OS(=O)(=O)c2cccc(C(F)(F)F)c2)cc1N,182
7,Clc1ccc([C@@]2(Cn3ccnc3)OC[C@H](COc3ccc4c(c3)CCN(Cc3ccc(-c5ccccc5)cc3)C4)O2)c(Cl)c1 (racemic),103 to 105
8,CCON=C1CN(c2c(F)c(N)c3c(=O)c(C(=O)O)cn(C4CC4)c3c2F)CC12CN(C(=O)OC(C)(C)C)C2,235 to 236
9,CN1C(=O)C(c2ccc(OC(F)(F)F)c(F)c2)(c2ccc(F)c(-c3cncnc3)c2)N=C1N (centres undefined),102 to 110
10,Cc1nc(C)c(CBr)nc1C,41.2 to 44
11,O=[N+]([O-])c1cc(C(F)(F)F)ccc1C(O)c1cnoc1C1CC1 (centres undefined),76
12,Cc1noc(C)c1C(C)(O)c1ccoc1 (centres undefined),88 to 90
13,O=C1NCCc2c1c1ccccc1n2Cc1ccccc1,209 to 212
14,CC(C)(C)c1nc(C=C2CCOC2=O)nc(C(C)(C)C)c1O,158 to 160
15,Cc1cc(-c2ccc(O)cc2)ccc1C=O,161 to 162
16,NCCCCn1ccnc1-c1ccccc1,82 to 84
17,O=C(CCl)Nc1ccncc1O,155 to 158
18,COc1ccc(-c2cc(-c3ccc(O)c(F)c3)nc3c(Cl)cc(O)cc23)cc1,140 to 142
19,Cc1cc(C2=NOC(c3cc(Cl)cc(Cl)c3)(C(F)(F)F)C2)ccc1C(=O)Nc1ncccn1 (centres undefined),122 to 124
20,O=C(CC12CC3CC(CC(C3)C1)C2)Nc1ccc2cn[nH]c2c1,245
21,Cc1cc(C(F)(F)F)nc2nc(N)ccc12,255 to 257
22,CC(Oc1cc(C(F)(F)F)cc(C(F)(F)F)c1)C(N)=O (centres undefined),84 to 85

row,SMILES,melting point [°C]
1,COc1ccc(C(=O)[NH+]([O-])c2c(Cl)cncc2Cl)c2c1oc1ccc(C(F)(F)F)cc12 (centres undefined),272
2,CC(C)(C)c1ncc(O)cn1,132
3,Cc1oc(-c2ccc(C(F)(F)F)cc2)nc1-c1cccc(-c2ccc(OCC(=O)O)cc2)c1,178 to 179
4,CN1CC2(OCCO2)c2ccc3ccccc3c2S1(=O)=O,169 to 171
5,O=C(C(=O)c1ccc(F)cc1)c1ccncc1,84 to 86
6,CCC(O)(CC)CC/C=C(\C)c1ccc(COc2ccc(CO)c(CO)c2)s1,100 to 102
7,CCCCc1nc2c(N)nc3ccccc3c2n1CCNC(=O)CCCCC1SCC2NC(=O)NC21 (centres undefined),124 to 126
8,CCCN[C@H]1CC[C@H](Oc2ccc3[nH]ncc3c2SC)CC1,168 to 169
9,CCCNCCCOc1ccc(-c2ccc(C(=O)O)cc2)cc1-c1ccc2c(c1)C(C)(C)CCC2(C)C,226
10,CC(=O)OCC1OC(OC(C)=O)C(N=[N+]=[N-])C(OC(C)=O)C1OC1OC(COC(C)=O)C(OC(C)=O)C(OC(C)=O)C1OC(C)=O (centres undefined),77 to 78
11,O=C(O)[C@H](Cc1ccc(C(F)(F)F)cc1)[C@@H](O)c1cccc2ccccc12 (racemic),151 to 152
12,Cn1nc(-c2cccc(Cl)c2)cc1C(=O)O,164 to 167
13,O=C(Nc1cnc(OCCO)c(NC(=O)OCCCl)c1)OCCCl,176 to 178
14,Cc1c(CC(F)(F)C(F)(F)C(F)(F)F)c(-c2ccc(S(N)(=O)=O)cc2)c2n1CCC2,221
15,Cc1nnc2n1-c1ccc(Cl)cc1C(c1ccccc1F)=CC2,223 to 225
16,NC(=O)NCc1c[nH]c(=S)n1[C@H]1CCc2c(F)cc(F)cc2C1,258 to 260
17,CC(C)Nc1c(C#N)cnn1-c1ccc(Cl)c(Cl)c1Cl,141 to 142
18,Cc1ccc(-c2nc(Cl)cc(N3CCN(C)CC3)n2)cc1,93 to 95
19,Cc1oc(-c2ccccc2)nc1CCOc1ccc(/C=C/C=C/CO)cc1,132 to 133
20,CCCCCCCCCCCCNC(=O)OCc1ccc(OC(C)=O)c(OC)c1,54 to 56
21,COc1ccc(-c2cc(COS(C)(=O)=O)c(=O)n(CCCc3ccc(F)cc3)n2)cc1F,112 to 116

# Results, then the molecule that gave them:
row,melting point [°C],SMILES
1,154 to 156,Nc1ccc2sc(C=Cc3ccccc3)nc2c1
2,109 to 111,Cc1ccnc2c1C(=O)CC(c1sc(Cl)cc1Cl)C2 (centres undefined)
3,150 to 151,Cc1ccc(S(N)(=O)=O)cc1-c1nc(C(F)(F)F)oc1-c1ccccc1
4,234 to 236,O=C(NCc1cccnc1)c1ccc2n1Cc1ccccc1N(C(=O)c1ccc(-c3ncccn3)cc1)C2
5,104 to 105,CC(C)(C)OC(=O)NC(CC1=CC(=O)NC1=O)C(=O)OC(C)(C)C (centres undefined)
6,33 to 35,CCCCCCCCCCCCCCOCC(CC#N)(CC#N)COCCCCCCCCCCCCCC
7,169,CCN(CC)c1ccc(C=C2CC(C)CC(=Cc3ccc(N(CC)CC)cc3)C2=O)cc1 (centres undefined)
8,208 to 209,N#Cc1c(N)nc2ccccc2c1Nc1cccs1
9,176 to 178,O=C(Nc1ccc(Cl)c(C(F)(F)F)c1)N[C@H]1CC[C@H](Oc2ccc(C(F)(F)F)cn2)CC1
10,103 to 105,CCN(CC)c1ccc(C(C)=O)cc1S(N)(=O)=O
11,211 to 213,C[Si](C)(C)c1cccc(NC(=O)c2ccc(C(=O)O)cc2)c1
12,204 to 207,COC(=O)c1c(OCc2ccc(-c3ccccc3-c3nnn[nH]3)cc2)cc(C)nc1Cl
13,116,CC(=O)c1cc2c(cc1C=O)C(C)(C)CCC2(C)C
14,72 to 74,CC(=O)Nc1cc(F)c(OCC(F)F)cc1[N+](=O)[O-]
15,164 to 166,CC(C)=CCCNC(=S)Nc1nc(C)cs1
16,115 to 116,CC(C)OC(=O)C(C(=O)Nc1ccccc1)=C1SCS1
17,270 to 271,COc1cc(OC)c2ncc(C(=O)NCc3ccc(Cl)cc3)c(O)c2c1

row,melting point [°C],SMILES
1,92 to 96,CCC1(CC)C(=O)N(C(C)(C)C)CC(C)(C)N1C(C)c1ccc(OC(C)=O)cc1 (centres undefined)
2,137 to 139,Cc1ccc(C(=O)NCc2ccc(O)c3ncccc23)cc1
3,254 to 256,CSC(C(=O)O)c1cc(=O)oc2cc(O)c(O)cc12 (centres undefined)
4,131 to 133,CCCc1nc2c(nc1O)CCCC2
5,112 to 114,CCOC(=O)Nc1ccc(CCBr)c(Cl)c1
6,45,CCOc1nn(-c2ccccc2Cl)c(=O)o1
7,144 to 146,COc1nc2cc(Cl)c(Cl)cc2nc1OC
8,225,CCOc1cc(-c2cc(C(F)(F)F)n3ncc(C(=O)Nc4cccc(S(=O)(=O)NC5CC5)c4)c3n2)ccc1C(F)(F)F
9,145 to 147,Clc1ccc(SC(CCc2ccccc2)Cn2ccnc2)cc1Cl (centres undefined)
10,210,N#Cc1ccc(-c2ccc(O)cn2)cc1
11,53 to 56,O=C1N(Cc2ccc(C(F)(F)F)o2)c2ccccc2C12COc1cc3c(cc12)OCCO3 (centres undefined)
12,158,O=C(O)C(S)=Cc1ccc(C(F)(F)F)o1
13,134 to 136,O=Cc1cccc2nnsc12
14,68 to 70,O=C(SC1CCCC1C(=O)N1CCC[C@H]1C(=O)O)c1ccccc1 (some centres undefined)
15,171 to 172,NC(=O)Cc1ccc2c(c1)C(=O)Cc1ccccc1S2
16,205 to 207,COc1cc(Nc2nc3cccc(-c4ccc(S(C)(=O)=O)cc4)c3o2)cc(OC)c1OC
17,138 to 142,CCc1nn(Cc2n[nH]c(=O)o2)c(CC)c1Oc1cc(Cl)cc(Cl)c1
